Results as given in ChEMBL document CHEMBL3885881, “DrugMatrix”.

Organism: Rattus norvegicus
Assay: DrugMatrix - Regimen: Daily Repeat
Type: toxicity, organism-based, Sprague-Dawley
Design: regimen Daily Repeat, gender Male, age 6-8 weeks
Settings: in vivo, po, route oral GAVAGE, […]; for ABSOLUTE BASOPHIL / ABSOLUTE EOSINOPHIL / ABSOLUTE LYMPHOCYTE / ABSOLUTE MONOCYTE / ABSOLUTE SEGMENTED NEUTROPHIL / BASOPHIL / EOSINOPHIL / ERYTHROCYTE COUNT / HEMATOCRIT / HEMOGLOBIN / LEUKOCYTE COUNT / LYMPHOCYTE / MEAN CORPUSCULAR HEMOGLOBIN / MEAN CORPUSCULAR HEMOGLOBIN CONCENTRATION / MEAN CORPUSCULAR VOLUME / MONOCYTE / NEUTROPHIL / NUCLEATED RED BLOOD CELLS / PLATELET COUNT: tissue Blood; for ALANINE AMINOTRANSFERASE / ALBUMIN / ALKALINE PHOSPHATASE / ASPARTATE AMINOTRANSFERASE / BLOOD UREA NITROGEN / CARBON DIOXIDE / CHLORIDE / CHOLESTEROL / CREATINE PHOSPHOKINASE / CREATININE / GLUCOSE / LACTATE DEHYDROGENASE / LIPASE / PHOSPHORUS / POTASSIUM / SODIUM / TOTAL BILIRUBIN / TOTAL PROTEIN / URIC ACID: tissue Plasma
[1] = 0 mg/kg, 72 h, dose level Control, time 3 day
[2] = 0 mg/kg, 120 h, dose level Control, time 5 day
[3] = 30 mg/kg, 72 h, dose level Low, time 3 day
[4] = 30 mg/kg, 120 h, dose level Low, time 5 day

## COc1ccc2[nH]c([S+]([O-])Cc3ncc(C)c(OC)c3C)nc2c1 (configuration not stated) [OMEPRAZOLE]
[1]
  ABSOLUTE BASOPHIL: 0 CELLS/uL
  ABSOLUTE EOSINOPHIL: 70.67 CELLS/uL
  ABSOLUTE LYMPHOCYTE: 12761.5 CELLS/uL
  ABSOLUTE MONOCYTE: 214.17 CELLS/uL
  ABSOLUTE SEGMENTED NEUTROPHIL: 987 CELLS/uL
  BASOPHIL: 0%
  EOSINOPHIL: 0.5%
  ERYTHROCYTE COUNT: 5.61 x10E6/uL
  HEMATOCRIT: 35.22%
  HEMOGLOBIN: 13.57 G/DL
  LEUKOCYTE COUNT: 14.03 x10E3/uL
  LYMPHOCYTE: 91%
  MEAN CORPUSCULAR HEMOGLOBIN: 24.25 pg
  MEAN CORPUSCULAR HEMOGLOBIN CONCENTRATION: 38.52 G/DL
  MEAN CORPUSCULAR VOLUME: 62.9 fL
  MONOCYTE: 1.5%
  NEUTROPHIL: 7%
  NUCLEATED RED BLOOD CELLS: 0 /100WBC
  PLATELET COUNT: 997.5 x10E3/uL
  ALANINE AMINOTRANSFERASE: 66.5 u/L
  ALBUMIN: 3.98 G/DL
  ALKALINE PHOSPHATASE: 350 u/L
  ASPARTATE AMINOTRANSFERASE: 83.83 u/L
  BLOOD UREA NITROGEN: 12.33 mg/dL
  CARBON DIOXIDE: 30.33 mmol/L
  CHLORIDE: 100 MEQ/L
  CHOLESTEROL: 75 mg/dL
  CREATINE PHOSPHOKINASE: 200 u/L
  CREATININE: 0.17 mg/dL
  GLUCOSE: 170 mg/dL
  LACTATE DEHYDROGENASE: 89.33 u/L
  LIPASE: 10.33 u/L
  PHOSPHORUS: 10.88 mg/dL
  POTASSIUM: 6.13 MEQ/L
  SODIUM: 140.53 MEQ/L
  TOTAL BILIRUBIN: 0.2 mg/dL
  TOTAL PROTEIN: 5.67 G/DL
  URIC ACID: 1.6 mg/dL
[2]
  ABSOLUTE BASOPHIL: 0 CELLS/uL
  ABSOLUTE EOSINOPHIL: 0 CELLS/uL
  ABSOLUTE LYMPHOCYTE: 9526.67 CELLS/uL
  ABSOLUTE MONOCYTE: 134.17 CELLS/uL
  ABSOLUTE SEGMENTED NEUTROPHIL: 922.5 CELLS/uL
  BASOPHIL: 0%
  EOSINOPHIL: 0%
  ERYTHROCYTE COUNT: 5.58 x10E6/uL
  HEMATOCRIT: 34.78%
  HEMOGLOBIN: 13.5 G/DL
  LEUKOCYTE COUNT: 10.58 x10E3/uL
  LYMPHOCYTE: 90.17%
  MEAN CORPUSCULAR HEMOGLOBIN: 24.27 pg
  MEAN CORPUSCULAR HEMOGLOBIN CONCENTRATION: 38.82 G/DL
  MEAN CORPUSCULAR VOLUME: 62.48 fL
  MONOCYTE: 1.17%
  NEUTROPHIL: 8.67%
  NUCLEATED RED BLOOD CELLS: 0.17 /100WBC
  PLATELET COUNT: 807.17 x10E3/uL
  ALANINE AMINOTRANSFERASE: 66.83 u/L
  ALBUMIN: 3.73 G/DL
  ALKALINE PHOSPHATASE: 286.17 u/L
  ASPARTATE AMINOTRANSFERASE: 142.33 u/L
  BLOOD UREA NITROGEN: 14.67 mg/dL
  CARBON DIOXIDE: 25.5 mmol/L
  CHLORIDE: 89.17 MEQ/L
  CHOLESTEROL: 75.17 mg/dL
  CREATINE PHOSPHOKINASE: 310.67 u/L
  CREATININE: 0.2 mg/dL
  GLUCOSE: 153 mg/dL
  LACTATE DEHYDROGENASE: 1594 u/L
  LIPASE: 14.83 u/L
  PHOSPHORUS: 11.28 mg/dL
  POTASSIUM: 8.46 MEQ/L
  SODIUM: 126.88 MEQ/L
  TOTAL BILIRUBIN: 0.37 mg/dL
  TOTAL PROTEIN: 5.53 G/DL
  URIC ACID: 1.52 mg/dL
[3]
  ABSOLUTE BASOPHIL: 0 CELLS/uL
  ABSOLUTE EOSINOPHIL: 80 CELLS/uL
  ABSOLUTE LYMPHOCYTE: 11444.67 CELLS/uL
  ABSOLUTE MONOCYTE: 85.33 CELLS/uL
  ABSOLUTE SEGMENTED NEUTROPHIL: 690 CELLS/uL
  BASOPHIL: 0%
  EOSINOPHIL: 0.67%
  ERYTHROCYTE COUNT: 5.41 x10E6/uL
  HEMATOCRIT: 34.37%
  HEMOGLOBIN: 13.77 G/DL
  LEUKOCYTE COUNT: 12.3 x10E3/uL
  LYMPHOCYTE: 93%
  MEAN CORPUSCULAR HEMOGLOBIN: 25.47 pg
  MEAN CORPUSCULAR HEMOGLOBIN CONCENTRATION: 40.07 G/DL
  MEAN CORPUSCULAR VOLUME: 63.53 fL
  MONOCYTE: 0.67%
  NEUTROPHIL: 5.67%
  NUCLEATED RED BLOOD CELLS: 0.67 /100WBC
  PLATELET COUNT: 1225.33 x10E3/uL
  ALANINE AMINOTRANSFERASE: 59.67 u/L
  ALBUMIN: 4.03 G/DL
  ALKALINE PHOSPHATASE: 348.67 u/L
  ASPARTATE AMINOTRANSFERASE: 77.33 u/L
  BLOOD UREA NITROGEN: 12 mg/dL
  CARBON DIOXIDE: 29.33 mmol/L
  CHLORIDE: 101 MEQ/L
  CHOLESTEROL: 72.33 mg/dL
  CREATINE PHOSPHOKINASE: 303.67 u/L
  CREATININE: 0.14 mg/dL
  GLUCOSE: 175.33 mg/dL
  LACTATE DEHYDROGENASE: 111 u/L
  LIPASE: 10.33 u/L
  PHOSPHORUS: 12.23 mg/dL
  POTASSIUM: 6.24 MEQ/L
  SODIUM: 143.63 MEQ/L
  TOTAL BILIRUBIN: 0.17 mg/dL
  TOTAL PROTEIN: 5.8 G/DL
  URIC ACID: 1.57 mg/dL
[4]
  ABSOLUTE BASOPHIL: 0 CELLS/uL
  ABSOLUTE EOSINOPHIL: 0 CELLS/uL
  ABSOLUTE LYMPHOCYTE: 8312.33 CELLS/uL
  ABSOLUTE MONOCYTE: 87.33 CELLS/uL
  ABSOLUTE SEGMENTED NEUTROPHIL: 233.67 CELLS/uL
  BASOPHIL: 0%
  EOSINOPHIL: 0%
  ERYTHROCYTE COUNT: 6.01 x10E6/uL
  HEMATOCRIT: 36%
  HEMOGLOBIN: 13.93 G/DL
  LEUKOCYTE COUNT: 8.63 x10E3/uL
  LYMPHOCYTE: 96.33%
  MEAN CORPUSCULAR HEMOGLOBIN: 23.2 pg
  MEAN CORPUSCULAR HEMOGLOBIN CONCENTRATION: 38.73 G/DL
  MEAN CORPUSCULAR VOLUME: 59.9 fL
  MONOCYTE: 1%
  NEUTROPHIL: 2.67%
  NUCLEATED RED BLOOD CELLS: 0 /100WBC
  PLATELET COUNT: 1213.33 x10E3/uL
  ALANINE AMINOTRANSFERASE: 65 u/L
  ALBUMIN: 4.2 G/DL
  ALKALINE PHOSPHATASE: 440.33 u/L
  ASPARTATE AMINOTRANSFERASE: 88.67 u/L
  BLOOD UREA NITROGEN: 14 mg/dL
  CARBON DIOXIDE: 30 mmol/L
  CHLORIDE: 98.67 MEQ/L
  CHOLESTEROL: 69 mg/dL
  CREATINE PHOSPHOKINASE: 217.67 u/L
  CREATININE: 0.27 mg/dL
  GLUCOSE: 163.33 mg/dL
  LACTATE DEHYDROGENASE: 152.67 u/L
  LIPASE: 11.67 u/L
  PHOSPHORUS: 11.43 mg/dL
  POTASSIUM: 5.8 MEQ/L
  SODIUM: 144.67 MEQ/L
  TOTAL BILIRUBIN: 0.17 mg/dL
  TOTAL PROTEIN: 6.1 G/DL
  URIC ACID: 1 mg/dL
